The target in the first experiment is T1, human SMINT (Homo sapiens, UniProt Q2M3M2).
T1 construct: expressed in transfected cells; host or cells: COS-7 cells (RIKEN CELL BANK RCB0539), transient lipofection of SMINT/pME18S-FL
T1 sequence (Q2M3M2 1-681): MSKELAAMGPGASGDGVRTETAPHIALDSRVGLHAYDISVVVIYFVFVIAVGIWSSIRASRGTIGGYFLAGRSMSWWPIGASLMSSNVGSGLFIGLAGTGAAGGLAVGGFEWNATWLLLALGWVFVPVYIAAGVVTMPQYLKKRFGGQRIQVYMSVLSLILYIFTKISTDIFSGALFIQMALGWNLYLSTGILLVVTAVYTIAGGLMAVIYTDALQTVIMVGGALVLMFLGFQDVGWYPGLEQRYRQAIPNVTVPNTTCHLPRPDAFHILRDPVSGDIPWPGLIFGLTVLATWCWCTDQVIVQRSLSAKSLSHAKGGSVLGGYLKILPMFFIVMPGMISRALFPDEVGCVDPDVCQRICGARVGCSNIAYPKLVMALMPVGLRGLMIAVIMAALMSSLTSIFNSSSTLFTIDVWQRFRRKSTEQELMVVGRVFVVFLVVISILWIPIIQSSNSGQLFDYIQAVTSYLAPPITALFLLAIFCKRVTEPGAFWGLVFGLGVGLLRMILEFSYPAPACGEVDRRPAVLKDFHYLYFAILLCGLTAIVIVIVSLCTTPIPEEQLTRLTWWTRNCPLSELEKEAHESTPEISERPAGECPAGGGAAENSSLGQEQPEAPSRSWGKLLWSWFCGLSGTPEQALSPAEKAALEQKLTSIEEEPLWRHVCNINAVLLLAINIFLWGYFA
Description: Confirmatory test for substrate specificity of human SMINT (inhibition assay of methyl-α-D-glucopyranoside uptake activity with natural sugars). The experiment is classed as cell-based. To be noted: COS-7 cells transiently expressing human SMINT; 1 mM α-MG, 1 hour, 37° C. The source says:
Confirmatory Test for Substrate Specificity of Human SMINT
(§1) 1) Preparation of Cells Transiently Expressing Human SMINT
Human SMINT-carrying expression plasmid SMINT/pME18S-FL (denotation of bacteria: Escherichia coli/SMINT2010324), which was deposited with NITE Patent Microorganisms Depositary on Mar. 12, 2002, was transfected to COS-7 cells (RIKEN CELL BANK RCB0539) by lipofection method. LIPOFECTAMINE PLUS reagent (Invitrogen) was used as the lipofection reagent. A day before the lipofection, COS-7 cells were suspended in D-MEM medium (Invitrogen) at 6×10^6 cells per 1 mL, and dispensed 50 μL per well of 96-well plate. The lipofection was performed by the following methods. For each well, 0.1 μg of the plasmid was diluted with 10 μL of D-MEM, added 0.5 μL of PLUS reagent, mixed gently, and kept stand for 15 minutes to prepare Plasmid Dilute Solution. For each well, 0.5 μL of LIPOFECTAMINE reagent was diluted with 10 μL of D-MEM to prepare LIPOFECTAMINE Dilute Solution. The Plasmid Dilute Solution was mixed with an equal volume of the LIPOFECTAMINE Dilute Solution, kept stand for 15 minutes, dispensed 20 μL per well of cell culture medium, and incubated at 37° C. under 5% CO2 for 5 hours. Then D-MEM containing 16.7% fetal bovine serum (Sanko Jun-yaku) was dispensed 100 μL per well. […]
(§2) To Uptake Buffer consisting of 140 mM sodium chloride, 2 mM potassium chloride, 1 mM calcium chloride, 1 mM magnesium chloride, 10 mM 2-[2-(2-hydroxyethyl)-1-piperazinyl]-ethanesulfonic acid, and 5 mM tris(hydroxymethyl)aminomethane (pH 7.4), was added methyl-α-D-glucopyranoside (α-MG) composed of its non-radiolabeled form and ^14C-labeled form at 1 mM as the final concentration. […] To the cell lysates were added 150 μL per well of MicroScint 40 (Packard), mixed well, and the radioactivity was measured in a microscintillation counter TOPCOUNT (Packard). α-MG uptake by the cells treated with each concentration of test compounds was calculated as relative activity to control group, which is set as 100% uptake after deducting the basal uptake. […]
For `OC[C@H]1OC[C@H](O)[C@@H](O)[C@@H]1O` [1,5-anhydroglucitol], the “recognition as substrate by SMINT (inhibition of α-MG uptake, FIG. 2)” value is listed as “recognizes”.

Take `O=C(CO)[C@@H](O)[C@H](O)[C@H](O)CO` [fructose]: the “recognition as substrate by SMINT (inhibition of α-MG uptake, FIG. 2)” value is listed as “recognizes”.

Take `O=C[C@H](O)[C@@H](O)[C@@H](O)[C@H](O)CO` [galactose]: the “recognition as substrate by SMINT (inhibition of α-MG uptake, FIG. 2)” value is “not”.

For the next experiment, the target named is T2, human 1,5-anhydroglucitol/fructose/mannose transporter (human SMINT) (Homo sapiens, UniProt Q2M3M2).
T2 construct: expressed in transfected cells; host or cells: COS-7 cells (RIKEN CELL BANK RCB0539), transient lipofection of SMINT/pME18S-FL
T2 sequence (Q2M3M2 1-681): T1 sequence (Q2M3M2 1-681)
Description: Confirmatory test for inhibitory activity on human 1,5-anhydroglucitol/fructose/mannose transporter (inhibition assay of methyl-α-D-glucopyranoside uptake activity). The experiment is classed as cell-based. As to conditions: COS-7 cells transiently expressing human SMINT; uptake of 1 mM methyl-α-D-glucopyranoside (α-MG), 1 hour, 37° C.; logit plot analysis. The method, then: Human SMINT-carrying expression plasmid SMINT/pME18S-FL (denotation of bacteria: Escherichia coli/SMINT2010324), which was deposited with NITE Patent Microorganisms Depositary on Mar. 12, 2002, was transfected to COS-7 cells (RIKEN CELL BANK RCB0539) by lipofection method. LIPOFECTAMINE PLUS reagent (Invitrogen) was used as the lipofection reagent. A day before the lipofection, COS-7 cells were suspended in D-MEM medium (Invitrogen) at 6×10^6 cells per 1 mL, and dispensed 50 μL per well of 96-well plate. The lipofection was performed by the following methods. For each well, 0.1 μg of the plasmid was diluted with 10 μL of D-MEM, added 0.5 μL of PLUS reagent, mixed gently, and kept stand for 15 minutes to prepare Plasmid Dilute Solution. For each well, 0.5 μL of LIPOFECTAMINE reagent was diluted with 10 μL of D-MEM to prepare LIPOFECTAMINE Dilute Solution. The Plasmid Dilute Solution was mixed with an equal volume of the LIPOFECTAMINE Dilute Solution, kept stand for 15 minutes, dispensed 20 μL per well of cell culture medium, and incubated at 37° C. under 5% CO2 for 5 hours. Then D-MEM containing 16.7% fetal bovine serum (Sanko Jun-yaku) was dispensed 100 μL per well. After 2 days culture, the cells were used for the inhibition assay of methyl-α-D-glucopyranoside uptake activity.
Confirmatory Test for Inhibitory Activity on Human 1,5-anhydroglucitol/fructose/mannose Transporter
as §1
The cells were prepared according to the method described in 1) of Test Example 2.
2) Inhibition Assay of methyl-α-D-glucopyranoside Uptake Activity
as §2, with “concentration. For measurement of basal uptake, Basal Buffer was prepared by the addition of 140 mM choline chloride instead of sodium chloride of the Uptake Buffer. In order to determine the substrate specificity among natural sugars, natural sugars were solubilized in distilled water, diluted with distilled water into appropriate concentrations, and added to the Uptake Buffer to prepare Assay Buffer.” for “concentration.”
`COc1ccc(Cc2c(O[C@@H]3O[C@H](CO)[C@@H](O)[C@H](O)[C@H]3O)nn(C(C)C)c2-c2ccc(OC)cc2)cc1` [Example 1] gave a concentration for half-maximal inhibition (IC50) of 92 nM.

Regarding `CC(C)c1c(Cc2ccccc2)c(O[C@@H]2O[C@H](CO)[C@@H](O)[C@H](O)[C@H]2O)nn1C(C)C` [Example 87, 4-Benzyl-3-(β-D-glucopyranosyloxy)-1,5-diisopropyl-1H-pyrazole], half-maximal inhibition (IC50) was put at 444 nM.

The compound `COc1ccc(Cc2c(O[C@@H]3O[C@H](CO)[C@@H](O)[C@H](O)[C@H]3O)nn(-c3ccccc3F)c2C(C)C)cc1` [Example 99] registered a concentration for half-maximal inhibition (IC50) of 245 nM.

For the compound `COc1ccc(Cc2c(O[C@@H]3O[C@H](CO)[C@@H](O)[C@H](O)[C@H]3O)nn(C(C)C)c2-c2ccc3c(c2)OCCO3)cc1` [Example 119], half-maximal inhibition (IC50) required 296 nM.
